Data published in patent publication US20200377518A1, “METHOD OF PREVENTING AND TREATING THROMBOSIS” (Rigel Pharmaceuticals, Inc., priority 2019, published 2020).

Assays:
[1] = biological target: IgE- and IgG-mediated activation of Fc receptor signaling; details: read-out: EC50 for degranulation; cited from earlier work
[2] = test system: monocytes/macrophages, neutrophils, B lymphocytes; details: cited from earlier work
ITP patients = assay: Fostamatinib in immune thrombocytic purpura (ITP) patients; format: in vivo, human
[3] = test system: Transgenic HIT mice homozygous for both FcγRIIA and human PF4 and null for mouse PF4; assay: Inhibition of thrombosis in vivo, transgenic HIT mice, lung thrombi; details: chow containing 0.5, 1 and 2 g/kg of R788 for 3 days, KKO or HIT-IgG, then heparin, lungs 3 hours later
Excerpt: Transgenic HIT mice homozygous for both FcγRIIA and human PF4 and null for mouse PF4 are used to evaluate the effects of fostamatinib on immune complexes (IC)-induced thrombocytopenia and thrombosis. 6-12 weeks old transgenic male mice are fed the control chow or chow containing 0.5, 1 and 2 g/kg of R788 for 3 days prior to the injection of either the monoclonal HIT-like antibody KKO or IgG from HIT patients (HIT-IgG). For HIT-induced thrombocytopenia experiments, all mice received heparin subcutaneously at 1600 U/kg body weight once daily for 6 days, starting with first day after antibody injection. Retro-orbital blood collection is performed daily after anesthetizing the animals starting a day before HIT antibody injection to monitor thrombocytopenia by counting platelets using standard equipment.
To assess fostamatinib effect on thrombosis, the mice are fed with drug or vehicle chow followed by injection of the HIT antibodies as described. Next day, each animal is retro-orbitally infused with 1×10^8 Alexa750-labeled platelets from untreated syngeneic donor mice prior to heparin injection. Animals are terminated 3 hours later, their lungs are excised, perfused with PBS, fixed with 7% paraformaldehyde and imaged using Odyssey Imaging System (LI-COR Bio). Thrombi are counted and scored by intensity using NIS Elements software (Nikon). […]

C57Bl/6 WT male mice = assay: Deep vein thrombosis, inferior vena cava (IVC) stenosis model; format: in vivo; details: fostamatinib chow for 3 days; 48 hours after the surgery
Description: Mice are fed fostamatinib or vehicle chow for 3 days, anaesthetized using isoflurane and then subjected to laparotomy. After tying off the side branches of the IVC, the IVC is stenosed with a ligature and a 30-gauge spacer to maintain a small degree of blood flow. Mice are allowed to recover, then culled 48 hours after the surgery and the IVC are examined for the presence and size of thrombus.
For deep vein thrombosis assay methods generally, see, Low dose Btk inhibitors selectively block platelet activation by CLEC-2. Phillip L. R. Nicolson et al. Haematologica 2020 Jan. 16. pii: haematol. 2019.218545. doi: 10.3324/haematol.2019.218545

C57Bl6 mice = assay: Arterial thrombosis, ferric chloride injury model of carotid artery; format: in vivo; details: fostamatinib chow for 3 days; FeCl3 on carotid artery
Description: To investigate effect on arterial thrombosis, a ferric chloride injury model in mice is employed. 8-week-old C57Bl6 mice are fed fostamatinib or vehicle chow for 3 days, anaesthetized using mixture of ketamine (100 mg/kg)/xylazine (10 mg/kg) via intraperitoneal injection and have their right jugular vein exposed. Next, rhodamine 6G solution is injected into the right jugular vein to label platelets, exposed carotid artery (CA) staged at the microscope and the thrombosis is induced by applying a piece of filter paper (1×2 mm) saturated with FeCl3 solution directly on the CA. Thrombus formation is identified by accumulation of the fluorescent platelets, which is observed in real-time recording video images under the microscope.
For arterial thrombosis assay methods generally, see, Wei Li, Thomas M. McIntyre, Roy L. Silverstein. Ferric chloride-induced murine carotid arterial injury: A model of redox pathology. Redox Biology 1 (2013) 50-55, and Wei Li, Marvin Nieman, Anirban Sen Gupta. Ferric Chloride-induced Murine Thrombosis Models. J. Vis. Exp. (115), e54479, doi:10.3791/54479 (2016).

| Compound | EC50 [1] | BCR-mediated activation of B lymphocytes [2] | Syk-dependent FcR-mediated activation of monocytes/macrophages and neutrophils [2] | platelet levels (ITP patients) | risk of thrombosis (ITP patients) | heparin induced thrombosis (lung thrombi counted and scored by intensity) [3] | heparin induced thrombosis (lung thrombi counted and scored by intensity) ([3]; listed as R788) | presence and size of thrombus in IVC (C57Bl/6 WT male mice) | arterial thrombus formation (accumulation of fluorescent platelets) (C57Bl6 mice) |
| --- | --- | --- | --- | --- | --- | --- | --- | --- | --- |
| COc1cc(Nc2ncc(F)c(Nc3ccc4c(n3)NC(=O)C(C)(C)O4)n2)cc(OC)c1OC [R406, 6-((5-fluoro-2-((3,4,5-trimethoxyphenyl)amino)pyrimidin-4-yl)amino)-2,2-dimethyl-2H-pyrido[3,2-b][1,4]oxazin-3(4H)-one] | 56 to 64 nM | blocked | blocked | – | – | – | – | – | – |
| COc1cc(Nc2ncc(F)c(Nc3ccc4c(n3)N(COP(=O)(O)O)C(=O)C(C)(C)O4)n2)cc(OC)c1OC [fostamatinib, [6-({5-Fluoro-2-[(3,4,5-trimethoxyphenyl)amino]-4-pyrimidinyl}amino)-2,2-dimethyl-3-oxo-2,3-dihydro-4H-pyrido[3,2-b][1,4]oxazin-4-yl]methyl dihydrogen phosphate] | – | – | – | increases platelet levels | does not appear to increase risk of thrombosis | effectively reduces heparin induced thrombosis | inhibits thrombosis in vivo | Relative lack of thrombus | Lack of thrombus formation |
